Series [1] deals with Mus musculus. In words: Toxicity in FVB mouse assessed as calcium level in blood at 24 pmol/day administered via osmotic pump for 6 to 7 days measured on day 6 by microchemistry (RVb = 2 mmol/L). The settings on record: in vivo, other. The class given is organism-based.
Series [2] has as its system Mus musculus. The series is described as follows: Toxicity in FVB mouse assessed as calcium level in blood at 24 pmol/day administered via osmotic pump for 6 to 7 days measured on day 7 by microchemistry (RVb = […] mmol/L). In kind it is organism-based. The settings on record: in vivo, other.
For series [3], the system named is Mus musculus. In words: Toxicity in FVB mouse assessed as calcium level in blood at 12 pmol/day administered via osmotic pump for 6 to 7 days measured on day 4 by microchemistry (RVb = 2.11 mmol/L). In kind it is organism-based. The conditions noted are these: in vivo, other.
For series [4], the system named is Mus musculus. The series is described as follows: Toxicity in FVB mouse assessed as calcium level in blood at 24 pmol/day administered via osmotic pump for 6 to 7 days measured on day 3 by microchemistry (RVb = 2.24 mmol/L). The conditions noted are these: in vivo, other. The class given is organism-based.
The subject of series [5] is Mus musculus. In words: Toxicity in FVB mouse assessed as calcium level in blood at 12 pmol/day administered via osmotic pump for 6 to 7 days measured on day 6 by microchemistry (RVb = 2 mmol/L). The settings on record: in vivo, other. The class given is organism-based.
Series [6] relates to Mus musculus. In words: Toxicity in FVB mouse assessed as calcium level in blood at 12 pmol/day administered via osmotic pump for 6 to 7 days measured on day 7 by microchemistry (RVb = […] mmol/L). In kind it is organism-based. The settings on record: in vivo, other.
Series [7] has as its system Mus musculus. The series is described as follows: Toxicity in FVB mouse assessed as calcium level in blood at 24 pmol/day administered via osmotic pump for 6 to 7 days measured on day 4 by microchemistry (RVb = 2.11 mmol/L). The class given is organism-based. The settings on record: in vivo, other.
For series [8], the system named is Mus musculus. In words: Toxicity in FVB mouse assessed as calcium level in blood at 48 pmol/day administered via osmotic pump for 6 to 7 days measured on day 6 by microchemistry (RVb = 2 mmol/L). The class given is organism-based. The settings on record: in vivo, other.
Series [9] relates to Mus musculus. In words: Toxicity in FVB mouse assessed as calcium level in blood at 12 pmol/day administered via osmotic pump for 6 to 7 days measured on day 3 by microchemistry (RVb = 2.24 mmol/L). The class given is organism-based. The settings on record: in vivo, other.
In series [10] the test system is Mus musculus. The series is described as follows: Toxicity in FVB mouse assessed as calcium level in blood at 48 pmol/day administered via osmotic pump for 6 to 7 days measured on day 3 by microchemistry (RVb = 2.24 mmol/L). The class given is organism-based. The conditions noted are these: in vivo, other.
Series [11] has as its system Mus musculus. In words: Toxicity in FVB mouse assessed as calcium level in blood at 1200 pmol/day administered via osmotic pump for 6 to 7 days measured on day 7 by microchemistry (RVb = […] mmol/L). In kind it is organism-based. The settings on record: in vivo, other.
Another series addresses T1, Vitamin D3 receptor (Homo sapiens, UniProt P11473).
T1 sequence (P11473 whole entry): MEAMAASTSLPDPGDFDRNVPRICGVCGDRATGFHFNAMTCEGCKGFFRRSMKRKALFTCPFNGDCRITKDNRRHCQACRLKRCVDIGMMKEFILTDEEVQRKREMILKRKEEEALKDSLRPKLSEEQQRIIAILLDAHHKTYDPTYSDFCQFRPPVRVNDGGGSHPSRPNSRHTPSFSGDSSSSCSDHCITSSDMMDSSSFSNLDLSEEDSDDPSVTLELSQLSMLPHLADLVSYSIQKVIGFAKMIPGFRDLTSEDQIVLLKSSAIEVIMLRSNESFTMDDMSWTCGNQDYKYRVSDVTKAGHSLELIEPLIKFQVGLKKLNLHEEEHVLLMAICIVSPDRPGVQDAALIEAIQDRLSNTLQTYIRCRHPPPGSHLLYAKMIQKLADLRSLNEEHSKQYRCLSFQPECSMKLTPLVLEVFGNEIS

For the next series, the target named is Histone deacetylase 3 (Homo sapiens, UniProt O15379). In words: Inhibition of HDAC3 after 10 mins by fluorometric assay.
Chain of Histone deacetylase 3 (O15379 whole entry): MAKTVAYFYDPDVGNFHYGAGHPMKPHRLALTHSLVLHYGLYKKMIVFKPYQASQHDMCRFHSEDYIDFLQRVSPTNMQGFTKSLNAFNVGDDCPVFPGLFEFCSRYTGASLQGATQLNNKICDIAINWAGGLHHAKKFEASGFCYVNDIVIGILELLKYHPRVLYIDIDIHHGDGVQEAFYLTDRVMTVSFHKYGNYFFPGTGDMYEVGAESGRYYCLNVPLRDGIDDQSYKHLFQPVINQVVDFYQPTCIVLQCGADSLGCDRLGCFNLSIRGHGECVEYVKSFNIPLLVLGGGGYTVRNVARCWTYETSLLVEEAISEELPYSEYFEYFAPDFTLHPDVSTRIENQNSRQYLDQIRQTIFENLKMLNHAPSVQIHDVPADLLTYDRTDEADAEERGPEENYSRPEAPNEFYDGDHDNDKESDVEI
Series [12] has as its system Mus musculus. In words: Toxicity in FVB mouse assessed as calcium level in blood at 240 pmol/day administered via osmotic pump for 6 to 7 days measured on day 4 by microchemistry (RVb = 2.11 mmol/L). The class given is organism-based. The conditions noted are these: in vivo, other.
Another series concerns the target Histone deacetylase 2 (Homo sapiens, UniProt Q92769). The series is described as follows: Inhibition of HDAC2 after 10 mins by fluorometric assay.
The next series deals with AT84. In words: Antiproliferative activity against mouse AT84 cells at 100 to 500 nM after 48 hrs by EdU incorporation assay. The class given is functional, cell-based.
Series [13] has as its system Mus musculus. In words: Toxicity in FVB mouse assessed as calcium level in blood at 1200 pmol/day administered via osmotic pump for 6 to 7 days measured on day 4 by microchemistry (RVb = 2.11 mmol/L). In kind it is organism-based. The conditions noted are these: in vivo, other.
The target of series [14] is T2, Protein deacetylase HDAC6 (Homo sapiens, UniProt Q9UBN7).
T2 sequence (Q9UBN7 whole entry): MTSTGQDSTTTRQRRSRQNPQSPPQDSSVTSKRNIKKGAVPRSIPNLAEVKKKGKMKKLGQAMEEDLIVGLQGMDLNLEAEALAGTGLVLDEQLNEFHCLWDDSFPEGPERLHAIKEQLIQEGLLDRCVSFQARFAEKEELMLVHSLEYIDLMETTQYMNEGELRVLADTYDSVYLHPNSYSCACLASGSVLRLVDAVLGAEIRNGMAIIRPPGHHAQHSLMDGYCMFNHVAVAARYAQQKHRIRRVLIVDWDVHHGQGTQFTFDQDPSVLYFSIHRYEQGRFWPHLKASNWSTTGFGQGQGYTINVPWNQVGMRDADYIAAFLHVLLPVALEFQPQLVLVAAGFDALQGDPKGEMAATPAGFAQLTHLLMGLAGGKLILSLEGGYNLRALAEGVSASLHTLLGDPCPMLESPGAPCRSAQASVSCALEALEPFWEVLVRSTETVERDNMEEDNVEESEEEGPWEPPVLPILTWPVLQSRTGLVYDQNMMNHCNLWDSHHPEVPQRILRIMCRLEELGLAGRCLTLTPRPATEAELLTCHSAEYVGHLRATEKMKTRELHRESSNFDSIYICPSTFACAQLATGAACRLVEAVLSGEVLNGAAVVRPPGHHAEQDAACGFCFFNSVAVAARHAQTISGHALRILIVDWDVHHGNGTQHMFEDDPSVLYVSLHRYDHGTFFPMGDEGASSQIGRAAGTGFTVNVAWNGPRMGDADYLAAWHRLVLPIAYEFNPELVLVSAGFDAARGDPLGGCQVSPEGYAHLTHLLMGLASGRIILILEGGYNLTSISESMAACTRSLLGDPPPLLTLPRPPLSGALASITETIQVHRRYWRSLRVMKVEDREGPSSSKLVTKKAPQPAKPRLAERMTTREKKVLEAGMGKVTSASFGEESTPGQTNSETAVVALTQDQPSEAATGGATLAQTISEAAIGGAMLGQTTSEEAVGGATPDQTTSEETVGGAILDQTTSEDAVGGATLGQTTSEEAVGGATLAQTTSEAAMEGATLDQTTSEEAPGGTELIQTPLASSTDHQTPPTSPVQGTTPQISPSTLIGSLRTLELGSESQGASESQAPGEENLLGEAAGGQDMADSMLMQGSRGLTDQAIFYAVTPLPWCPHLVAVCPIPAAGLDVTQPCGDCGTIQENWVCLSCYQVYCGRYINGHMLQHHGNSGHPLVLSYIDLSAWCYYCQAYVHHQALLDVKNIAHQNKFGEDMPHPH
The series is described as follows: Inhibition of HDAC6 after 10 mins by fluorometric assay.

For series [15], the system named is Mus musculus. The series is described as follows: Toxicity in FVB mouse assessed as calcium level in blood at 240 pmol/day administered via osmotic pump for 6 to 7 days measured on day 7 by microchemistry (RVb = […] mmol/L). The class given is organism-based. The conditions noted are these: in vivo, other.
Series [16] has as its system Mus musculus. In words: Toxicity in FVB mouse assessed as calcium level in blood at 1200 pmol/day administered via osmotic pump for 6 to 7 days measured on day 6 by microchemistry (RVb = 2 mmol/L). The conditions noted are these: in vivo, other. The class given is organism-based.
The subject of series [17] is Mus musculus. In words: Toxicity in FVB mouse assessed as calcium level in blood at 1200 pmol/day administered via osmotic pump for 6 to 7 days measured on day 3 by microchemistry (RVb = 2.24 mmol/L). The conditions noted are these: in vivo, other. The class given is organism-based.
A short description of series [18]: Ratio of compound to calcitriol antiproliferative activity against mouse AT84 cells. The class given is functional.
For series [19], the system named is Mus musculus. The series is described as follows: Toxicity in FVB mouse assessed as calcium level in blood at 240 pmol/day administered via osmotic pump for 6 to 7 days measured on day 3 by microchemistry (RVb = 2.24 mmol/L). The class given is organism-based. The settings on record: in vivo, other.
The subject of series [20] is Mus musculus. The series is described as follows: Toxicity in FVB mouse assessed as calcium level in blood at 240 pmol/day administered via osmotic pump for 6 to 7 days measured on day 6 by microchemistry (RVb = 2 mmol/L). The conditions noted are these: in vivo, other. The class given is organism-based.

The source made the active and inactive calls. The calls are words filed in the database; no cut-off is given here.

Chain of Histone deacetylase 2 (Q92769 whole entry): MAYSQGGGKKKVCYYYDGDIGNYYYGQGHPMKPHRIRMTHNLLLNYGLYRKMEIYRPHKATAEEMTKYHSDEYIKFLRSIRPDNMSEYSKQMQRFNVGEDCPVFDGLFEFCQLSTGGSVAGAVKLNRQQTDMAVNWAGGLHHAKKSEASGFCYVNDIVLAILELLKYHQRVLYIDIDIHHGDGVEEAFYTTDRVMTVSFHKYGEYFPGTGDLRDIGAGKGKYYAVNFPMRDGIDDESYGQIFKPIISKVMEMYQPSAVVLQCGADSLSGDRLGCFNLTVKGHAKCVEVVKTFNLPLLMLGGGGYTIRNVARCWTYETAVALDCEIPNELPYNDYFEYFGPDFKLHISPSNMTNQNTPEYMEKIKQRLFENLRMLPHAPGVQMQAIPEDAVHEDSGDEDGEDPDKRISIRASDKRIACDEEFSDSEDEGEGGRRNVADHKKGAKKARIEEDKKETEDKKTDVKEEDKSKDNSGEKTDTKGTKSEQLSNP
Description for Vitamin D3 receptor: Binding affinity to VDR ligand binding domain by fluorescence polarization competition assay

As to `C=C1/C(=C\C=C2/CCC[C@]3(C)[C@@H]([C@H](C)CCCC(C)(C)O)CC[C@@H]23)C[C@@H](O)C[C@@H]1O` [CALCITRIOL], the Activity in the series with Mus musculus [1] is 4.43 mmol/L; in the series with Mus musculus [2], 3.21 mmol/L; with Mus musculus [3], 2.59 mmol/L; in the series on Mus musculus [4], 3.15 mmol/L; with Mus musculus [5], 2.03 mmol/L; in the series on Mus musculus [6], 2.62 mmol/L. Further, the Activity with Mus musculus [7] is 2.97 mmol/L; in the series with Mus musculus [8], “Toxic”; with Mus musculus [9], 2.05 mmol/L; with Mus musculus [10], 3.07 mmol/L.

For the molecule `C[C@H](CCCCNC(=O)CS)[C@H]1CC[C@H]2/C(=C/C=C3C[C@@H](O)C[C@H](O)C3)CCC[C@]12C`, the Activity with Mus musculus [11] was found to be 2.04 mmol/L; in the series with Mus musculus [12], 2.03 mmol/L; in the series with Mus musculus [13], 2 mmol/L; in the series with Mus musculus [15], 2.02 mmol/L. For the same molecule, the IC50 turned out to be 0.036 µM against Vitamin D3 receptor, 32.3 µM against Histone deacetylase 3, 96.3 µM on Histone deacetylase 2 and 1.75 µM in series [14]. For the same molecule, the result with AT84 was Active.

As to `C[C@H](CCCCC(=O)Nc1ccccc1N)[C@H]1CC[C@H]2/C(=C/C=C3C[C@@H](O)C[C@H](O)C3)CCC[C@]12C`, the Activity with Mus musculus [11] is 2.09 mmol/L; with Mus musculus [12], 1.97 mmol/L; in the series on Mus musculus [13], 2.04 mmol/L; with Mus musculus [15], 1.8 mmol/L. Further, the half-inhibitory concentration (IC50) on Vitamin D3 receptor turned out to be 0.185 µM; at Histone deacetylase 3, 104 µM; against Histone deacetylase 2, 189 µM; in series [14], 81.1 µM. Moreover, in the series on AT84, the result was Active.

As to `C[C@H](CCCCC(=O)NO)[C@H]1CC[C@H]2/C(=C/C=C3C[C@@H](O)C[C@H](O)C3)CCC[C@]12C`, the Activity stood at 2.26 mmol/L in the series with Mus musculus [16], 2.03 mmol/L with Mus musculus [17], 1.93 mmol/L with Mus musculus [19] and 1.93 mmol/L in the series with Mus musculus [20]. Moreover, the IC50 against Vitamin D3 receptor came out at 0.248 µM; at Histone deacetylase 3, 14.5 µM; against Histone deacetylase 2, 16.5 µM; in series [14], 3 µM. Further, in [18], the Ratio worked out at 20. For the same molecule, the result in the series with AT84 was Active.
